Source: ChEMBL document CHEMBL5584239, “Discovery of novel quinoline scaffold selective estrogen receptor degraders (SERDs) for treatment of ER positive breast cancer with enhanced antiproliferative bioactivity through immunogenic cell death (ICD) effects” (Eur J Med Chem, 2024)
Calls of active or inactive are those of the source. No cut-off for these calls is given here.

How the values were obtained:
MCF7 [1] = assay: Antiproliferative activity against human MCF7 cells incubated for 5 days by MTT assay; format: functional, cell-based; conditions: MCF7, 120 h
[2] = target: T1, Estrogen receptor (Homo sapiens) (UniProt P03372); assay: Induction of estrogen receptor degradation in human MCF7 cells at 10 uM by fluorescence microscopy; format: cell-based
T1 sequence (whole entry): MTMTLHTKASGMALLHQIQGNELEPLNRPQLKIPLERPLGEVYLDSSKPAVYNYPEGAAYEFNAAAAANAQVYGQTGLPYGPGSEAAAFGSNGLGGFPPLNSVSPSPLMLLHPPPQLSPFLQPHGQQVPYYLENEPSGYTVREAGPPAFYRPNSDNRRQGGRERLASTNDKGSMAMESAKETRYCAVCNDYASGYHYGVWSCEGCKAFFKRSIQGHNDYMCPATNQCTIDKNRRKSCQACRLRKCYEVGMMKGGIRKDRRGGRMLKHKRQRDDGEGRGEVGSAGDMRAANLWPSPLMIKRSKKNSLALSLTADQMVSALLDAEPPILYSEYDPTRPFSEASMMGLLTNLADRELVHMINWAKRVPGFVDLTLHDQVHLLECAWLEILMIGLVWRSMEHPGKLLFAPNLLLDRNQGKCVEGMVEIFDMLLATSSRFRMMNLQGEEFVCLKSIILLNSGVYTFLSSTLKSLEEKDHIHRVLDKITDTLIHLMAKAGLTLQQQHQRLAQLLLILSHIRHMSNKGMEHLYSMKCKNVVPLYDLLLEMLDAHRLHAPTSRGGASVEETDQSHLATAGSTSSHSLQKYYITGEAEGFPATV

[3] = target: T1, Estrogen receptor (Homo sapiens); assay: Induction of estrogen receptor degradation in estradiol-stimulated human MCF7 cells assessed as decrease in PGR mRNA level incubated for 24 hrs by RT-qPCR analysis; format: cell-based; conditions: dose 1-10 µM
[4] = target: T1, Estrogen receptor (Homo sapiens); assay: Induction of estrogen receptor degradation in estradiol-stimulated human MCF7 cells assessed as decrease in GREB1 mRNA level incubated for 24 hrs by RT-qPCR analysis; format: cell-based; conditions: dose 1-10 µM
[5] = target: T1, Estrogen receptor (Homo sapiens); assay: Induction of estrogen receptor degradation in estradiol-stimulated human MCF7 cells assessed as decrease in TFF1 mRNA level incubated for 24 hrs by RT-qPCR analysis; format: cell-based; conditions: dose 1-10 µM
[6] = Tmax in rat at 5 mg/kg, iv measured for 1 to 24 hrs by LC-MS analysis; format: ADME, organism-based; conditions: in vivo, time 1-24 hrs
[7] = Cmax in rat at 5 mg/kg, iv measured for 1 to 24 hrs by LC-MS analysis; format: ADME, organism-based; conditions: in vivo, time 1-24 hrs
[8] = C0 in rat at 5 mg/kg, iv measured for 1 to 24 hrs by LC-MS analysis; format: ADME, organism-based; conditions: in vivo, time 1-24 hrs
[9] = AUC (0 to infinity) in rat at 5 mg/kg, iv measured for 1 to 24 hrs by LC-MS analysis; format: ADME, organism-based; conditions: in vivo, time 1-24 hrs
[10] = Apparent volume of distribution in rat at 5 mg/kg, iv measured for 1 to 24 hrs by LC-MS analysis; format: ADME, organism-based; conditions: in vivo, time 1-24 hrs, read-out: Vz
[11] = Half life in rat at 20 mg/kg, po measured for 1 to 24 hrs by LC-MS analysis; format: ADME, organism-based; conditions: in vivo, time 1-24 hrs
[12] = Cmax in rat at 20 mg/kg, po measured for 1 to 24 hrs by LC-MS analysis; format: ADME, organism-based; conditions: in vivo, time 1-24 hrs
[13] = AUC (0 to t) in rat at 20 mg/kg, po measured for 1 to 24 hrs by LC-MS analysis; format: ADME, organism-based; conditions: in vivo, time 1-24 hrs
[14] = AUC (0 to infinity) in rat at 20 mg/kg, po measured for 1 to 24 hrs by LC-MS analysis; format: ADME, organism-based; conditions: in vivo, time 1-24 hrs
[15] = MRT (0 to infinity) in rat at 20 mg/kg, po measured for 1 to 24 hrs by LC-MS analysis; format: ADME, organism-based; conditions: in vivo, time 1-24 hrs
[16] = Oral bioavailability in rat at 20 mg/kg measured for 1 to 24 hrs by LC-MS analysis; format: ADME, organism-based; conditions: in vivo, time 1-24 hrs
MCF7 [17] = assay: Induction of cell cycle arrest at G0/G1 phase in human MCF7 cells at 10 uM incubated for 24 hrs by PI/RNase staining based flow cytometry (reference value: 53.5 +/- 1.96 %); format: functional
MCF7 [18] = assay: Induction of ROS production in human MCF7 cells incubated for 3 to 24 hrs by immunofluorescence analysis; format: functional, cell-based; conditions: time 3-24 hrs
MCF7 [19] = assay: Induction of endoplasmic reticulum stress effect in human MCF7 cells assessed as change in GRP78 level at 10 uM incubated for 3 to 24 hrs by Western blot analysis; format: functional, cell-based; conditions: time 3-24 hrs
MCF7 [20] = assay: Induction of endoplasmic reticulum stress effect in human MCF7 cells assessed as change in pEIF-2alpha level at 10 uM incubated for 3 to 24 hrs by Western blot analysis; format: functional, cell-based; conditions: time 3-24 hrs
MCF7 [21] = assay: Induction of endoplasmic reticulum stress effect in human MCF7 cells assessed as change in CHOP level at 10 uM incubated for 3 to 24 hrs by Western blot analysis; format: functional, cell-based; conditions: time 3-24 hrs
MCF7 [22] = assay: Induction of endoplasmic reticulum stress effect in human MCF7 cells assessed as change in calnexin level at 10 uM incubated for 24 hrs by immunofluorescence based analysis; format: functional, cell-based
MCF7 [23] = assay: Induction of immunogenic cell death in human MCF7 cells assessed as CRT translocation at 10 uM by Western blot analysis; format: functional, cell-based
MCF7 [24] = assay: Induction of immunogenic cell death in human MCF7 cells assessed as CRT translocation at 10 uM by FITC staining based flow cytometry; format: functional
MCF7 [25] = assay: Induction of immunogenic cell death in human MCF7 cells assessed as HMGB1 release from nucleus at 10 uM by FITC staining based flow cytometry; format: functional
MCF7 [26] = assay: Induction of immunogenic cell death in human MCF7 cells assessed as HMGB1 release from nucleus at 10 uM by fluorescence microscopy; format: functional, cell-based
MCF7 [27] = assay: Induction of immunogenic cell death in human MCF7 cells assessed as ATP release […] at 10 uM; format: functional, cell-based
MCF7 [28] = assay: Antitumor activity against human MCF7 cells xenografted in nude mouse model assessed as tumor growth inhibition at 60 mg/kg, po administered daily via gavage for 30 days; format: functional, organism-based; conditions: time 30.0 day
[29] = Toxicity in nude mouse model xenografted with human MCF7 cells assessed as body weight loss at 60 mg/kg, po administered daily via gavage for 30 days; format: organism-based; conditions: in vivo, 720 h, time 30 day
[30] = Toxicity in nude mouse model xenografted with human MCF7 cells assessed as morphological change in heart at 60 mg/kg, po administered daily via gavage for 30 days by H and E staining based analysis; format: organism-based; conditions: in vivo, 720 h, time 30 day
[31] = Toxicity in nude mouse model xenografted with human MCF7 cells assessed as morphological change in liver at 60 mg/kg, po administered daily via gavage for 30 days by H and E staining based analysis; format: organism-based; conditions: in vivo, 720 h, time 30 day
[32] = Toxicity in nude mouse model xenografted with human MCF7 cells assessed as morphological change in kidney at 60 mg/kg, po administered daily via gavage for 30 days by H and E staining based analysis; format: organism-based; conditions: in vivo, 720 h, time 30 day
MCF7 [33] = assay: Antitumor activity against human MCF7 cells xenografted in nude mouse model assessed as reduction in Ki67 level at 60 mg/kg, po administered daily via gavage for 30 days in presence of ribociclib by IHC analysis; format: functional, organism-based; conditions: time 30.0 day
Uterus = assay: Effect on immature Sprague-Dawley rat uterus assessed as reduction in uterine wet weight at 60 mg/kg, po qd for 2 days by H and E staining based analysis; format: functional, organism-based; conditions: time 2.0 day

In the case of CCc1ccccc1C(=O)c1cnc2cc(O)ccc2c1Oc1ccc(/C=C/C(=O)O)cc1, the IC50 (MCF7 [1]) is reported as 0.15 µM, the Activity [2] is reported as “Active” and the Activity [3] is reported as “Dose-Dependent Effect”. The Activity [4] was “Dose-Dependent Effect”, the Activity [5] was “Dose-Dependent Effect” and the Tmax [6] was 4.98 min. It also gave a Cmax [7] of 10400 ng/mL, a C0 [8] of 31300 ng/mL and an AUC(0-inf) [9] of 3050 ng·h/mL. For the same molecule, the Vd [10] was 2 L/kg, the half-life [11] was 3.18 h and the Cmax [12] was 501 ng/mL. For the same molecule, the AUC(0-t) [13] was 628 ng·h/mL, the AUC(0-inf) [14] was 649 ng·h/mL and the MRT inf [15] was 2.66 h. The bioavailability [16] was 5.32%, the Activity (MCF7 [17]) was 59.7% and the Activity (MCF7 [18]) was “inactive”. The Activity (MCF7 [19]) was “Active”, the Activity (MCF7 [20]) was “Active” and the Activity (MCF7 [21]) was “Active”. For the same molecule, the Activity (MCF7 [22]) was “Active”, the Activity (MCF7 [23]) was “Active” and the Activity (MCF7 [24]) was “Active”. For the same molecule, the Activity (MCF7 [25]) was “Active”, the Activity (MCF7 [26]) was “Active” and the Activity (MCF7 [27]) was “Active”. The inhibition (MCF7 [28]) was “Active”, the Activity [29] was “Non-Toxic” and the Activity [30] was “Non-Toxic”. For the same molecule, the Activity [31] was “Non-Toxic”, the Activity [32] was “Non-Toxic” and the Activity (MCF7 [33]) was “Active”. For the same molecule, the Activity (Uterus) was “inactive”.
